# In ChEMBL document CHEMBL4138081, “Recent developments of coumarin-containing derivatives and their anti-tubercular activity” (Eur J Med Chem, 2017):
# Experiments:
# [1] = tested on: Mycobacterium tuberculosis; test: Antimycobacterial activity against Mycobacterium tuberculosis ATCC 27294 by MABA; format: functional
# [2] = tested on: Mycobacterium tuberculosis; test: Antimycobacterial activity against Mycobacterium tuberculosis H37Rv […] by BACTEC MGIT method; format: functional
# [3] = tested on: Mycobacterium tuberculosis; test: Antimycobacterial activity against Mycobacterium tuberculosis H37Rv after 12 to 28 days by Lowenstein and Jensen method; format: functional
# [4] = tested on: Mycobacterium tuberculosis; test: Antimycobacterial activity against Mycobacterium tuberculosis after 5 days by MABA; format: functional; conditions: 120 h
# [5] = tested on: Mycobacterium tuberculosis; test: Growth inhibition of Mycobacterium tuberculosis H37Rv at 6.25 ug/ml by MABA method relative to control; format: functional; conditions: read-out: GI
# [6] = tested on: Mycobacterium tuberculosis; test: Antimycobacterial activity against Mycobacterium tuberculosis H37Rv by MABA; format: functional
# Mycolicibacterium vaccae = test: Antimycobacterial activity against Mycolicibacterium vaccae 10670; format: functional
# [7] = Selectivity index, ratio of LD50 for African green monkey Vero cells to MIC>99 for Mycobacterium tuberculosis H37Rv; format: toxicity; conditions: read-out: Selectivity Index
# [8] = tested on: Mycobacterium tuberculosis; test: Antimycobacterial activity against Mycobacterium tuberculosis H37Rv by BACTEC radiometric assay; format: functional
# [9] = Cytotoxicity against African green monkey Vero cells by CellTiter 96 non-radioactive cell proliferation assay; format: cell-based; conditions: chlorocebus sabaeus, read-out: LD50 (the source's name)
# [10] = tested on: Mycobacterium tuberculosis; test: Antimycobacterial activity against Mycobacterium tuberculosis H37Rv after 72 hrs by alamar blue dye-based broth dilution assay; format: functional
# [11] = tested on: Mycobacterium tuberculosis; test: Antimycobacterial activity against Mycobacterium tuberculosis H37Rv by broth dilution assay; format: functional
# [12] = tested on: Mycolicibacterium smegmatis; test: Potency index, ratio of MIC for 8-OCH3 ciprofloxacin to MIC for test compound for Mycobacterium smegmatis CMCC 93202; format: functional
# [13] = tested on: Mycolicibacterium smegmatis; test: Antimycobacterial activity against Mycobacterium smegmatis CMCC 93202; format: functional
# [14] = tested on: Mycolicibacterium smegmatis; test: Potency index, ratio of MIC for moxifloxacin to MIC for test compound for Mycobacterium smegmatis CMCC 93202; format: functional
# [15] = tested on: Mycolicibacterium smegmatis; test: Potency index, ratio of ciprofloxacin MIC to compound MIC for Mycobacterium smegmatis CMCC 93202; format: functional
# [16] = tested on: Mycolicibacterium smegmatis; test: Potency index, ratio of MIC for rifampin to MIC for test compound for Mycobacterium smegmatis CMCC 93202; format: functional
# [17] = tested on: Mycobacterium tuberculosis; test: Antimycobacterial activity against Mycobacterium tuberculosis H37Rv ATCC 27294 by BACTEC method; format: functional
compound,measurement,setting,value
O=C(N/N=C/c1cccc(Cl)c1)c1cc2ccccc2oc1=O,MIC,[1],50 to 100 mg/L
Cn1c(=O)cc(Oc2nc(Nc3ccc(C#N)c(C(F)(F)F)c3)nc(N3CCN(c4ccc(F)cc4)CC3)n2)c2ccccc21,MIC,[2],> 6.25 mg/L
same,MIC,[3],100 to 1000 mg/L
Cc1cc(=O)oc2cc(OCc3cn(Cc4cc(=O)oc5cc(Cl)ccc45)nn3)ccc12,MIC,[4],6.25 mg/L
N#Cc1ccc(Nc2nc(Oc3cc(=O)oc4ccccc34)nc(N3CCN(c4ccc(F)cc4)CC3)n2)cc1C(F)(F)F,MIC,[2],> 6.25 mg/L
same,MIC,[3],100 to 1000 mg/L
COc1ccc(-c2cc(-c3ccc(O)cc3)nc(/N=c3\ccc4ccccc4o3)n2)cc1,inhibition of growth at 6.25 µg/mL,[5],37%
same,MIC,[6],9.6 to 240 mg/L
Cn1c(=O)cc(Oc2nc(Nc3ccc(C#N)c(C(F)(F)F)c3)nc(N3CCN(c4ccccc4F)CC3)n2)c2ccccc21,MIC,[2],> 6.25 mg/L
same,MIC,[3],100 to 1000 mg/L
O=C(N/N=C/c1cccc(O)c1)c1cc2ccccc2oc1=O,MIC,[1],50 to 100 mg/L
Cn1c(=O)cc(Oc2nc(Nc3ccc(C#N)c(C(F)(F)F)c3)nc(N3CCN(c4cccc(C(F)(F)F)c4)CC3)n2)c2ccccc21,MIC,[2],> 6.25 mg/L
same,MIC,[3],100 to 1000 mg/L
Cc1ccc2oc(=O)c3c(O)c4cccc(O[C@@H]5O[C@H](C)[C@@H](O)[C@H](O)[C@H]5O[C@@H]5O[C@@H](C)[C@@H](O)[C@@H](O)[C@@H]5O)c4c4oc(=O)c1c2c34,MIC,Mycolicibacterium vaccae,1.22 µM
Cn1c(=O)cc(Oc2nc(Nc3ccc(C#N)c(C(F)(F)F)c3)nc(N3CCN(c4ccc(C(F)(F)F)cc4)CC3)n2)c2ccccc21,MIC,[2],> 6.25 mg/L
same,MIC,[3],100 to 1000 mg/L
Oc1ccc(-c2cc(-c3ccc(Cl)cc3)nc(/N=c3\ccc4ccccc4o3)n2)cc1,inhibition of growth at 6.25 µg/mL,[5],70%
same,MIC,[6],9.6 to 240 mg/L
C[C@H]1[C@H](C)Oc2c3c(c4c(-c5ccccc5)cc(=O)oc4c2[C@H]1O)OC(C)(C)C=C3 [SOULATTROLIDE],selectivity ratio,[7],> 3.2
same,MIC99,[8],3.13 mg/L
same,CC50,[9],> 10 mg/L
COc1cccc(/C=N/NC(=O)c2cc3ccccc3oc2=O)c1,MIC,[1],50 to 100 mg/L
Cc1cc2oc(=O)c(C(c3cccs3)c3c(O)c4cc(C)c(C)cc4oc3=O)c(C)c2cc1C (stereo unspecified),MIC,[10],5.22 µM
N#Cc1ccc(Nc2nc(Oc3cc(=O)oc4ccccc34)nc(N3CCN(c4ccccc4F)CC3)n2)cc1C(F)(F)F,MIC,[2],> 6.25 mg/L
same,MIC,[3],100 to 1000 mg/L
COc1ccc(-c2cc(-c3ccc([N+](=O)[O-])cc3)nc(/N=c3\ccc4ccccc4o3)n2)cc1,inhibition of growth at 6.25 µg/mL,[5],65%
same,MIC,[6],9.6 to 240 mg/L
N#Cc1ccc(Nc2nc(Oc3cc(=O)oc4ccccc34)nc(N3CCN(c4ccc(C(F)(F)F)cc4)CC3)n2)cc1C(F)(F)F,MIC,[2],> 6.25 mg/L
same,MIC,[3],100 to 1000 mg/L
O=C(N/N=C/c1ccc(O)cc1)c1cc2ccccc2oc1=O,MIC,[1],50 to 100 mg/L
Cc1cc(=O)oc2cc(OCc3cn(Cc4cc(=O)oc5ccc6ccccc6c45)nn3)ccc12,MIC,[4],6.25 mg/L
O=c1oc2ccccc2cc1-c1cn2nc(C(F)(F)F)sc2n1,MIC,[11],40 mg/L
Cc1cc(=O)oc2cc(OCc3cn(Cc4cc(=O)oc5ccc(Cl)cc45)nn3)ccc12,MIC,[4],6.25 mg/L
COc1ccc2cc(C(=O)CN3CCN(c4c(F)cc5c(=O)c(C(=O)O)cn(C6CC6)c5c4OC)CC3)c(=O)oc2c1,Ratio,[12],2 - 8
same,MIC,[13],0.25 mg/L
same,Ratio,[14],2 - 8
same,Ratio,[15],2 - 8
same,Ratio,[16],2 - 8
CCCc1cc(=O)oc2c3c(c4c(c12)OC(C)(C)C=C4)O[C@H](C)[C@@H](C)[C@@H]3O [CALANOLIDE A],MIC,[17],3.13 mg/L
COc1ccc(/C=N/NC(=O)c2cc3ccccc3oc2=O)cc1,MIC,[1],50 to 100 mg/L
NC(=O)c1cnccn1 [PYRAZINAMIDE],MIC,[1],> 100 mg/L
O=C(N/N=C/c1ccc(O)cc1O)c1cc2ccccc2oc1=O,MIC,[1],50 to 100 mg/L
O=C(N/N=C/c1ccc([N+](=O)[O-])cc1)c1cc2ccccc2oc1=O,MIC,[1],50 to 100 mg/L
O=c1oc2ccccc2cc1C(c1cccs1)c1c(O)c2ccccc2oc1=O (stereo unspecified),MIC,[10],5.22 µM
N#Cc1ccc(Nc2nc(Oc3cc(=O)oc4ccccc34)nc(N3CCN(c4cccc(C(F)(F)F)c4)CC3)n2)cc1C(F)(F)F,MIC,[2],> 6.25 mg/L
same,MIC,[3],100 to 1000 mg/L
